# Test results published in patent publication US6737383B1, “Herbicidal oxadiazolidines” (priority 1999, dated 2004).
# How the values were obtained:
# sugar beet = test: Test B pre/postemergence sugar beet; type: in vivo, Beta vulgaris; details: for Plant response rating, Sugarbeets: scale of 0 to 10 where 0 is no effect and 10 is complete control
# In short: (§1)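 Response is a visual 0-to-10 score relative to untreated plants, where 0 means no effect and 10 means complete control, taken twelve to sixteen days after application. Treatments went onto soil at planting and onto foliage of 1- to 4-leaf plants, using a surfactant-containing non-phytotoxic solvent.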
# duck salad = test: Test B flood test duck salad; type: in vivo, Heteranthera limosa
# In short: (§2)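 Read-out is a visual response score from 0 (no effect) to 10 (complete control), assigned by comparison with untreated controls. Treatment was applied at the 2-leaf stage, and plants stayed in the greenhouse for twelve to sixteen days before scoring.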
# purple nutsedge = test: Test B pre/postemergence purple nutsedge; type: in vivo, Cyperus rotundus; details: for Plant response rating, Nutsedge: scale of 0 to 10 where 0 is no effect and 10 is complete control
# In short: as §1
# velvetleaf = test: Test B pre/postemergence velvetleaf; type: in vivo, Abutilon theophrasti; details: for Plant response rating, Velvetleaf: scale of 0 to 10 where 0 is no effect and 10 is complete control
# In short: as §1
# morningglory = test: Test B pre/postemergence morningglory; type: in vivo, Ipomoea hederacea; details: for Plant response rating, Morningglory: scale of 0 to 10 where 0 is no effect and 10 is complete control
# In short: as §1
# pigweed = test: Test B pre/postemergence pigweed; type: in vivo, Amaranthus retroflexus; details: for Plant response rating, Redroot pigweed: scale of 0 to 10 where 0 is no effect and 10 is complete control
# In short: as §1
# bamyardgrass = test: Test B flood test barnyardgrass; type: in vivo, Echinochloa crus-galli
# In short: as §2
# wild oat = test: Test B pre/postemergence wild oat; type: in vivo, Avena fatua; details: for Plant response rating, Wild oats: scale of 0 to 10 where 0 is no effect and 10 is complete control
# In short: as §1
# cocklebur = test: Test B pre/postemergence cocklebur; type: in vivo, Xanthium strumarium
# In short: as §1
# corn = test: Test B pre/postemergence corn; type: in vivo, Zea mays
# In short: as §1
# surinam grass = test: Test B pre/postemergence surinam grass; type: in vivo, Brachiaria decumbens
# In short: as §1
# rape = test: Test B pre/postemergence rape; type: in vivo, Brassica napus; details: for Plant response rating, Rape: scale of 0 to 10 where 0 is no effect and 10 is complete control
# In short: as §1
# smallflower flatsedge = test: Test B flood test smallflower flatsedge; type: in vivo, Cyperus difformis
# In short: as §2
# soybean = test: Test B pre/postemergence soybean; type: in vivo, Glycine max; details: for Plant response rating, Soybean: scale of 0 to 10 where 0 is no effect and 10 is complete control
# In short: as §1
# giant foxtail = test: Test B pre/postemergence giant foxtail; type: in vivo, Setaria faberii
# In short: as §1
# crabgrass = test: Test B pre/postemergence crabgrass; type: in vivo, Digitaria sanguinalis
# In short: as §1
# blackgrass = test: Test B pre/postemergence blackgrass; type: in vivo, Alopecurus myosuroides
# In short: as §1
# rice = test: Test B flood test rice; type: in vivo, Oryza sativa
# In short: as §2
# wheat = test: Test B pre/postemergence wheat; type: in vivo, Triticum aestivum; details: for Plant response rating, Wheat: scale of 0 to 10 where 0 is no effect and 10 is complete control
# In short: as §1
# [1] = Postemergence, Rate 250 g/ha, scale 0 to 10
# [2] = Preemergence, Rate 250 g/ha, scale 0 to 10, 0 is no effect, 10 is complete control
# [3] = Preemergence, Rate 500 g/ha, scale 0 to 10, 0 is no effect, 10 is complete control
# [4] = Rate 62 g/ha, Postemergence, scale 0 to 10 (0 no effect, 10 complete control)
# [5] = Rate 125 g/ha, Postemergence, scale 0 to 10, 0 is no effect, 10 is complete control
# [6] = Rate 62 g/ha, flood test species, Pre-emergence, visual evaluation after twelve to sixteen days
# [7] = Rate 125 g/ha, under heading Pre-emergence, flood test species, visual evaluation after twelve to sixteen days
# [8] = Rate 250 g/ha, Pre-emergence (flood test species), scale 0 to 10, 0 is no effect, 10 is complete control
# [9] = Rate 500 g/ha, Pre-emergence, flood test species, scale 0 to 10 (0 no effect, 10 complete control)
# [10] = Postemergence, Rate 500 g/ha, scale of 0 to 10 where 0 is no effect and 10 is complete control
# [11] = Preemergence, Rate 62 g/ha, scale of 0 to 10 where 0 is no effect and 10 is complete control
# [12] = Preemergence, Rate 125 g/ha, scale of 0 to 10 where 0 is no effect and 10 is complete control
structure (smiles),measurement,setting,value
COC(OC)C(C)n1c(=O)on(C(=O)N(c2ccc(F)cc2F)C(C)C)c1=O (stereo not shown) [Compound 472],Sugarbeets plant response rating,sugar beet; [1],0
same,"Plant response rating, Sugarbeets","sugar beet; Preemergence, Rate 62 g/ha",1
same,"Plant response rating, Sugarbeets","sugar beet; Preemergence, Rate 125 g/ha",2
same,Sugarbeets plant response rating,sugar beet; [2],3
same,Sugarbeets plant response rating,sugar beet; [3],6
same,Sugarbeets plant response rating,sugar beet; [4],0
same,Sugarbeets plant response rating,sugar beet; [5],0
same,"Plant response rating, Ducksalad (0 to 10 scale, 0 is no effect, 10 is complete control)",duck salad; [6],0
same,"Ducksalad plant response rating (0 to 10 scale, 0 is no effect, 10 is complete control)",duck salad; [7],0
same,Ducksalad plant response rating,duck salad; [8],0
same,Ducksalad plant response rating,duck salad; [9],0
same,Nutsedge plant response rating,purple nutsedge; [1],0
same,"Plant response rating, Nutsedge","purple nutsedge; Preemergence, Rate 62 g/ha",0
same,"Plant response rating, Nutsedge","purple nutsedge; Preemergence, Rate 125 g/ha",0
same,Nutsedge plant response rating,purple nutsedge; [2],0
same,Nutsedge plant response rating,purple nutsedge; [3],10
same,Nutsedge plant response rating,purple nutsedge; [4],0
same,Nutsedge plant response rating,purple nutsedge; [5],0
same,Velvetleaf plant response rating,velvetleaf; [1],2
same,"Plant response rating, Velvetleaf","velvetleaf; Preemergence, Rate 62 g/ha",1
same,"Plant response rating, Velvetleaf","velvetleaf; Preemergence, Rate 125 g/ha",3
same,Velvetleaf plant response rating,velvetleaf; [2],3
same,Velvetleaf plant response rating,velvetleaf; [3],7
same,Velvetleaf plant response rating,velvetleaf; [4],0
same,Velvetleaf plant response rating,velvetleaf; [5],0
same,Morningglory plant response rating,morningglory; [1],4
same,"Plant response rating, Morningglory","morningglory; Preemergence, Rate 62 g/ha",0
same,"Plant response rating, Morningglory","morningglory; Preemergence, Rate 125 g/ha",0
same,Morningglory plant response rating,morningglory; [2],0
same,Morningglory plant response rating,morningglory; [3],5
same,Morningglory plant response rating,morningglory; [4],3
same,Morningglory plant response rating,morningglory; [5],3
same,Redroot pigweed plant response rating,pigweed; [1],3
same,"Plant response rating, Redroot pigweed","pigweed; Preemergence, Rate 62 g/ha",10
same,"Plant response rating, Redroot pigweed","pigweed; Preemergence, Rate 125 g/ha",10
same,Redroot pigweed plant response rating,pigweed; [2],10
same,Redroot pigweed plant response rating,pigweed; [3],10
same,Redroot pigweed plant response rating,pigweed; [4],0
same,Redroot pigweed plant response rating,pigweed; [5],2
same,"Plant response rating, Barnyardgrass (0 to 10 scale, 0 is no effect, 10 is complete control)",bamyardgrass; [6],0
same,"Barnyardgrass plant response rating (0 to 10 scale, 0 is no effect, 10 is complete control)",bamyardgrass; [7],0
same,Barnyardgrass plant response rating,bamyardgrass; [8],0
same,Barnyardgrass plant response rating,bamyardgrass; [9],0
same,Wild oats plant response rating,wild oat; [1],0
same,"Plant response rating, Wild oats","wild oat; Preemergence, Rate 62 g/ha",2
same,"Plant response rating, Wild oats","wild oat; Preemergence, Rate 125 g/ha",5
same,Wild oats plant response rating,wild oat; [2],8
same,Wild oats plant response rating,wild oat; [3],10
same,Wild oats plant response rating,wild oat; [4],0
same,Wild oats plant response rating,wild oat; [5],0
same,Cocklebur plant response rating,cocklebur; [1],0
same,Cocklebur plant response rating,cocklebur; [10],1
same,"Plant response rating, Cocklebur",cocklebur; [11],0
same,"Plant response rating, Cocklebur",cocklebur; [12],0
same,Cocklebur plant response rating,cocklebur; [2],0
same,Cocklebur plant response rating,cocklebur; [3],2
same,Cocklebur plant response rating,cocklebur; [4],0
same,Cocklebur plant response rating,cocklebur; [5],0
same,Corn plant response rating,corn; [1],0
same,Corn plant response rating,corn; [10],3
same,"Plant response rating, Corn",corn; [11],0
same,"Plant response rating, Corn",corn; [12],0
same,Corn plant response rating,corn; [2],2
same,Corn plant response rating,corn; [3],7
same,Corn plant response rating,corn; [4],0
same,Corn plant response rating,corn; [5],0
same,B. signalgrass plant response rating,"surinam grass; Postemergence, Rate 250 g/ha, scale 0 to 10, 0 no effect, 10 complete control",2
same,B. signalgrass plant response rating,surinam grass; [10],5
same,"Plant response rating, B. signalgrass",surinam grass; [11],3
same,"Plant response rating, B. signalgrass",surinam grass; [12],9
same,B. signalgrass plant response rating,surinam grass; [2],9
same,B. signalgrass plant response rating,surinam grass; [3],10
same,B. signalgrass plant response rating,surinam grass; [4],0
same,B. signalgrass plant response rating,surinam grass; [5],0
same,Rape plant response rating,rape; [1],0
same,"Plant response rating, Rape","rape; Preemergence, Rate 62 g/ha",0
same,"Plant response rating, Rape","rape; Preemergence, Rate 125 g/ha",0
same,Rape plant response rating,rape; [2],0
same,Rape plant response rating,rape; [3],4
same,Rape plant response rating,rape; [4],0
same,Rape plant response rating,rape; [5],0
same,"Plant response rating, S. Flatsedge (0 to 10 scale, 0 is no effect, 10 is complete control)",smallflower flatsedge; [6],0
same,"S. Flatsedge plant response rating (0 to 10 scale, 0 is no effect, 10 is complete control)",smallflower flatsedge; [7],0
same,S. Flatsedge plant response rating,smallflower flatsedge; [8],0
same,S. Flatsedge plant response rating,smallflower flatsedge; [9],0
same,Soybean plant response rating,soybean; [1],2
same,"Plant response rating, Soybean","soybean; Preemergence, Rate 62 g/ha",0
same,"Plant response rating, Soybean","soybean; Preemergence, Rate 125 g/ha",0
same,Soybean plant response rating,soybean; [2],0
same,Soybean plant response rating,soybean; [3],3
same,Soybean plant response rating,soybean; [4],2
same,Soybean plant response rating,soybean; [5],2
same,Giant foxtail plant response rating,giant foxtail; [1],8
same,Giant foxtail plant response rating,giant foxtail; [10],8
same,"Plant response rating, Giant foxtail",giant foxtail; [11],10
same,"Plant response rating, Giant foxtail",giant foxtail; [12],10
same,Giant foxtail plant response rating,giant foxtail; [2],10
same,Giant foxtail plant response rating,giant foxtail; [3],10
same,Giant foxtail plant response rating,giant foxtail; [4],7
same,Giant foxtail plant response rating,giant foxtail; [5],7
same,Crabgrass plant response rating,crabgrass; [1],8
same,Crabgrass plant response rating,crabgrass; [10],8
same,"Plant response rating, Crabgrass",crabgrass; [11],9
same,"Plant response rating, Crabgrass",crabgrass; [12],9
same,Crabgrass plant response rating,crabgrass; [2],10
same,Crabgrass plant response rating,crabgrass; [3],10
same,Crabgrass plant response rating,crabgrass; [4],7
same,Crabgrass plant response rating,crabgrass; [5],7
same,Blackgrass plant response rating,blackgrass; [1],2
same,Blackgrass plant response rating,blackgrass; [10],8
same,"Plant response rating, Blackgrass",blackgrass; [11],9
same,"Plant response rating, Blackgrass",blackgrass; [12],9
same,Blackgrass plant response rating,blackgrass; [2],10
same,Blackgrass plant response rating,blackgrass; [3],10
same,Blackgrass plant response rating,blackgrass; [4],0
same,Blackgrass plant response rating,blackgrass; [5],0
same,"Plant response rating, Rice (0 to 10 scale, 0 is no effect, 10 is complete control)",rice; [6],0
same,"Rice plant response rating (0 to 10 scale, 0 is no effect, 10 is complete control)",rice; [7],0
same,Rice plant response rating,rice; [8],0
same,Rice plant response rating,rice; [9],0
same,Wheat plant response rating,wheat; [1],0
same,"Plant response rating, Wheat","wheat; Preemergence, Rate 62 g/ha",0
same,"Plant response rating, Wheat","wheat; Preemergence, Rate 125 g/ha",0
same,Wheat plant response rating,wheat; [2],0
same,Wheat plant response rating,wheat; [3],0
same,Wheat plant response rating,wheat; [4],0
same,Wheat plant response rating,wheat; [5],0
